Laboratory results as given in ChEMBL document CHEMBL1135104, “A novel type of nonsteroidal estrone sulfatase inhibitors” (Bioorg Med Chem Lett, 2002).

What was measured:
Steryl-sulfatase = target: T1, Steryl-sulfatase (Homo sapiens, UniProt P08842); assay: Inhibitory activity againist Estrone sulfatase from MCF-7 cells ([…]); type: cell-based, MCF7
T1 sequence (P08842 whole entry): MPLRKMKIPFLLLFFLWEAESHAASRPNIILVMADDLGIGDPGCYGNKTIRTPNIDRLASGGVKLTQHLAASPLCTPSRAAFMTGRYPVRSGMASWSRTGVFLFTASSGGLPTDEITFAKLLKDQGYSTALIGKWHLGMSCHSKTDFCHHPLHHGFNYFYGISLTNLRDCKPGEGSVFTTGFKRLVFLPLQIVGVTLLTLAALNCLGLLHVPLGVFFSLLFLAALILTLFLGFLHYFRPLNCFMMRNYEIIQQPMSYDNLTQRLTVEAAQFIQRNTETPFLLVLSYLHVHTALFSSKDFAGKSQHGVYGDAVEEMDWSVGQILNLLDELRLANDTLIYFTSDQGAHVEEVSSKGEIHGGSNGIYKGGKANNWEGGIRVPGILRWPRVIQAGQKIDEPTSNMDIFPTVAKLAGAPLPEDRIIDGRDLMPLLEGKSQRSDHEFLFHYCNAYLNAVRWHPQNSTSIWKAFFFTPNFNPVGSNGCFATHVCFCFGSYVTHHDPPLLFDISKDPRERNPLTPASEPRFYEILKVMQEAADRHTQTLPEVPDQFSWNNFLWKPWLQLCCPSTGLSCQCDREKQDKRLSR

[1] = Acute toxicity in the hens fertile egg screening test (HEST).; design: species or system Gallus gallus; conditions: chicken

| SMILES | IC50 (Steryl-sulfatase) [µM] | LD50 [1] [mg/kg] |
| --- | --- | --- |
| CCC(CC)/N=C(\S)N/N=C/c1cc2c(c(O)c1C(=O)O)-c1c(O)c3c(c(OC)c1CC2)C(=O)c1c(cc(O)c(C)c1O)C3=O | 18 |  |
| COc1c2c(c(O)c3c1C(=O)c1c(cc(O)c(C)c1O)C3=O)-c1c(cc3c(c1O)C(=O)OC3O)CC2 (centres undefined) | 41 |  |
| COc1c2c(c(O)c3c1C(=O)c1c(cc(O)c(C)c1O)C3=O)-c1c(cc(/C=N/NC(=O)Oc3ccccc3)c(C(=O)O)c1O)CC2 | > 100 |  |
| COc1c2c(c(O)c3c1C(=O)c1c(cc(O)c(C)c1O)C3=O)-c1c(cc(/C=N/N=C(\S)N(C)C3CCCCC3)c(C(=O)O)c1O)CC2 | 1.4 |  |
| COc1c2c(c(O)c3c1C(=O)c1c(cc(O)c(C)c1O)C3=O)-c1c(cc(/C=N/NC(=S)NC3CCCCC3)c(C(=O)O)c1O)CC2 [MHL CYCLOHEXYLTHIOSEMICARBAZONE] | 0.46 | > 50 |
| CC/N=C(\S)N/N=C/c1cc2c(c(O)c1C(=O)O)-c1c(O)c3c(c(OC)c1CC2)C(=O)c1c(cc(O)c(C)c1O)C3=O | 16 |  |
| CCCC/N=C(\S)N/N=C/c1cc2c(c(O)c1C(=O)O)-c1c(O)c3c(c(OC)c1CC2)C(=O)c1c(cc(O)c(C)c1O)C3=O | 6 |  |
| CCCCCC/N=C(\S)N/N=C/c1cc2c(c(O)c1C(=O)O)-c1c(O)c3c(c(OC)c1CC2)C(=O)c1c(cc(O)c(C)c1O)C3=O | 8 |  |
| COc1c2c(c(O)c3c1C(=O)c1c(cc(O)c(C)c1O)C3=O)-c1c(cc(/C=N/N=C(\S)N3CCCCC3)c(C(=O)O)c1O)CC2 | 8 |  |
| COc1c2c(c(O)c3c1C(=O)c1c(cc(O)c(C)c1O)C3=O)-c1c(cc(/C=N/N=C(\S)NC3CCCC3)c(C(=O)O)c1O)CC2 | 3.2 |  |
| CN/C(S)=N/N=C/c1cc2c(c(O)c1C(=O)O)-c1c(O)c3c(c(OC)c1CC2)C(=O)c1c(cc(O)c(C)c1O)C3=O | 29 |  |
| COc1c2c(c(O)c3c1C(=O)c1c(cc(O)c(C)c1O)C3=O)-c1c(cc(/C=N/NC(=O)NC3CCCCC3)c(C(=O)O)c1O)CC2 | 7 |  |
| CCC/N=C(\S)N/N=C/c1cc2c(c(O)c1C(=O)O)-c1c(O)c3c(c(OC)c1CC2)C(=O)c1c(cc(O)c(C)c1O)C3=O | 20 |  |
| CCCCCCCCC/N=C(\S)N/N=C/c1cc2c(c(O)c1C(=O)O)-c1c(O)c3c(c(OC)c1CC2)C(=O)c1c(cc(O)c(C)c1O)C3=O | 19 |  |
| COc1c2c(c(O)c3c1C(=O)c1c(cc(O)c(C)c1O)C3=O)-c1c(cc(/C=N/NC(=O)Nc3ccccc3)c(C(=O)O)c1O)CC2 | > 100 |  |
| CCCCC/N=C(\S)N/N=C/c1cc2c(c(O)c1C(=O)O)-c1c(O)c3c(c(OC)c1CC2)C(=O)c1c(cc(O)c(C)c1O)C3=O | 13 |  |
| COc1c2c(c(O)c3c1C(=O)c1c(cc(O)c(C)c1O)C3=O)-c1c(cc(/C=N/N=C(\S)NC3CCCCCC3)c(C(=O)O)c1O)CC2 | 1.8 |  |
| COc1c2c(c(O)c3c1C(=O)c1c(cc(O)c(C)c1O)C3=O)-c1c(cc(/C=N/N=C(/N)S)c(C(=O)O)c1O)CC2 | > 100 |  |

Continued, in another order:

| IC50 (Steryl-sulfatase) [µM] | SMILES | LD50 [1] [mg/kg] |
| --- | --- | --- |
| 24 | COc1c2c(c(O)c3c1C(=O)c1c(cc(O)c(C)c1O)C3=O)-c1c(cc(/C=N/N=C(\S)NC(C)C)c(C(=O)O)c1O)CC2 |  |
| 9 | CCCCCCC/N=C(\S)N/N=C/c1cc2c(c(O)c1C(=O)O)-c1c(O)c3c(c(OC)c1CC2)C(=O)c1c(cc(O)c(C)c1O)C3=O |  |
| > 100 | COc1c2c(c(O)c3c1C(=O)c1c(cc(O)c(C)c1O)C3=O)-c1c(cc(/C=N/N=C(\S)Oc3ccccc3)c(C(=O)O)c1O)CC2 |  |
| 50 | CCCCCCCCCCCC/N=C(\S)N/N=C/c1cc2c(c(O)c1C(=O)O)-c1c(O)c3c(c(OC)c1CC2)C(=O)c1c(cc(O)c(C)c1O)C3=O |  |
| 23 | COc1ccc(N/C(S)=N/N=C/c2cc3c(c(O)c2C(=O)O)-c2c(O)c4c(c(OC)c2CC3)C(=O)c2c(cc(O)c(C)c2O)C4=O)cc1 |  |
| 4 | COc1c2c(c(O)c3c1C(=O)c1c(cc(O)c(C)c1O)C3=O)-c1c(cc(/C=N/N=C(\S)NC3CCC(C)CC3)c(C(=O)O)c1O)CC2 (centres undefined) |  |
| 6 | COc1c2c(c(O)c3c1C(=O)c1c(cc(O)c(C)c1O)C3=O)-c1c(cc(/C=N/N=C(\S)NN3CCCCC3)c(C(=O)O)c1O)CC2 |  |
| > 100 | COc1c2c(c(O)c3c1C(=O)c1c(cc(O)c(C)c1O)C3=O)-c1c(cc(/C=N/N=C(\S)Nc3ccc(Cl)cc3)c(C(=O)O)c1O)CC2 |  |
| 11 | COc1c2c(c(O)c3c1C(=O)c1c(cc(O)c(C)c1O)C3=O)-c1c(cc(/C=N/N=C(\S)NCC(C)C)c(C(=O)O)c1O)CC2 |  |
| 4.8 | COc1c2c(c(O)c3c1C(=O)c1c(cc(O)c(C)c1O)C3=O)-c1c(cc(/C=N/N=C(\S)Nc3ccccc3)c(C(=O)O)c1O)CC2 |  |
| 25 | COc1c2c(c(O)c3c1C(=O)c1c(cc(O)c(C)c1O)C3=O)-c1c(cc(/C=N/N=C(\S)NC(C)(C)C)c(C(=O)O)c1O)CC2 |  |
| 15 | COc1c2c(c(O)c3c1C(=O)c1c(cc(O)c(C)c1O)C3=O)-c1c(cc(/C=N/N=C(\S)NC3CCCCCCC3)c(C(=O)O)c1O)CC2 |  |
| 12 | COc1c2c(c(O)c3c1C(=O)c1c(cc(O)c(C)c1O)C3=O)-c1c(cc(/C=N/N=C(\S)Nc3ccc(C)cc3)c(C(=O)O)c1O)CC2 |  |
| 2.6 | Cc1cc(=O)oc2cc(OS(N)(=O)=O)ccc12 |  |
| 22 | COc1c2c(c(O)c3c1C(=O)c1c(cc(O)c(C)c1O)C3=O)-c1c(cc(/C=N/N=C(\S)NC3CC3)c(C(=O)O)c1O)CC2 |  |
